# Data from PubChem BioAssay AID248 (DTP/NCI, 2004).
# “And” between values parts separate entries of the source, which are not always exact repeats. Equal entries are not always repeated. Toxic doses and inconclusive results are not listed.
# Tested on: L1210 leukemia ip in BDF1 mice, survival T/C
# Test: NCI In Vivo Anticancer Drug Screen. Data for tumor model L1210 Leukemia (intraperitoneal) in B6D2F1 (BDF1) mice
# Details: endpoint: mean survival time, higher = longer survival
# Summary of the method: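 Tumor was transplanted into mice, which were then dosed with test compound or vehicle alone. Survival was recorded for each group, and the treated figure was expressed relative to the control figure.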
# [1] = dose: 100.0 mg/kg/injection, schedule: Q01DX009 (ip), vehicle: saline with Tween-80
# [2] = dose: 100.0 mg/kg/injection, schedule: Q04DX002 (ip), vehicle: saline with Tween-80
# [3] = dose: 100.0 mg/kg/injection, schedule: Q04DX003 (ip), vehicle: saline with Tween-80
# [4] = dose: 200.0 mg/kg/injection, schedule: Q01DX009 (ip), vehicle: saline with Tween-80
# [5] = dose: 200.0 mg/kg/injection, schedule: Q04DX002 (ip), vehicle: saline with Tween-80
# [6] = dose: 400.0 mg/kg/injection, schedule: Q01DX009 (ip), vehicle: saline with Tween-80
# [7] = dose: 100.0 mg/kg/injection, schedule: Q01DX001 (ip), vehicle: saline
# [8] = dose: 200.0 mg/kg/injection, schedule: Q01DX001 (ip), vehicle: saline
# [9] = dose: 400.0 mg/kg/injection, schedule: Q01DX001 (ip), vehicle: saline
# [10] = dose: 100.0 mg/kg/injection, schedule: Q01DX001 (ip), vehicle: Klucel (hydroxypropylcellulose) (HPC)
# [11] = dose: 25.0 mg/kg/injection, schedule: Q04DX003 (ip), vehicle: saline
# [12] = dose: 50.0 mg/kg/injection, schedule: Q04DX003 (ip), vehicle: saline
# [13] = dose: 100.0 mg/kg/injection, schedule: Q04DX003 (ip), vehicle: saline
# [14] = dose: 200.0 mg/kg/injection, schedule: Q04DX003 (ip), vehicle: saline
# [15] = dose: 200.0 mg/kg/injection, schedule: Q01DX001 (ip), vehicle: Klucel (hydroxypropylcellulose) (HPC)
# [16] = dose: 200.0 mg/kg/injection, schedule: Q04DX003 (ip), vehicle: Klucel (hydroxypropylcellulose) (HPC)
# [17] = dose: 400.0 mg/kg/injection, schedule: Q04DX003 (ip), vehicle: Klucel (hydroxypropylcellulose) (HPC)
# [18] = dose: 100.0 mg/kg/injection, schedule: Q04DX003 (ip), vehicle: Klucel (hydroxypropylcellulose) (HPC)
# [19] = dose: 25.0 mg/kg/injection, schedule: Q01DX009 (ip), vehicle: saline
# [20] = dose: 50.0 mg/kg/injection, schedule: Q01DX009 (ip), vehicle: saline
smiles,measurement,setting,value
O=C(/C=C/c1ccccc1)NC(=S)Nc1cc(C(F)(F)F)ccc1Cl,T/C,"dose: 100.0 mg/kg/injection, schedule: Q01DX001 (ip), vehicle: saline with Tween-80",103 % of control
same,T/C,[1],92 % of control and 86 % of control
same,T/C,[2],98 % of control and 90 % of control
same,T/C,[3],100 % of control
same,T/C,"dose: 200.0 mg/kg/injection, schedule: Q01DX001 (ip), vehicle: saline with Tween-80",95 % of control
same,T/C,[4],92 % of control and 90 % of control
same,T/C,[5],93 % of control and 114 % of control
same,T/C,"dose: 200.0 mg/kg/injection, schedule: Q04DX003 (ip), vehicle: saline with Tween-80",94 % of control
same,T/C,"dose: 400.0 mg/kg/injection, schedule: Q01DX001 (ip), vehicle: saline with Tween-80",101 % of control
same,T/C,[6],95 % of control and 89 % of control
same,T/C,"dose: 400.0 mg/kg/injection, schedule: Q04DX002 (ip), vehicle: saline with Tween-80",95 % of control and 101 % of control
CCOc1nc(OCC)c2[nH]c(C(=O)O)c(Br)c2n1,T/C,"dose: 50.0 mg/kg/injection, schedule: Q01DX001 (ip), vehicle: saline",107 % of control
same,T/C,[7],100 % of control
same,T/C,[8],105 % of control
same,T/C,[9],107 % of control
CCOC(=O)C(=CNc1cc(NC(C)=O)nc(SC)n1)C(=O)OCC,T/C,"dose: 100.0 mg/kg/injection, schedule: Q04DX002 (ip), vehicle: Klucel (hydroxypropylcellulose) (HPC)",96 % of control
same,T/C,"dose: 200.0 mg/kg/injection, schedule: Q04DX002 (ip), vehicle: Klucel (hydroxypropylcellulose) (HPC)",103 % of control
same,T/C,"dose: 400.0 mg/kg/injection, schedule: Q04DX002 (ip), vehicle: Klucel (hydroxypropylcellulose) (HPC)",96 % of control
Nc1nc2n(O)cc(C(O)C(O)CO)nc-2c(=O)n1 (stereo unspecified),T/C,[7],100 % of control
same,T/C,[8],103 % of control
same,T/C,[9],103 % of control
COc1ccc(C(O)c2c(CN3CCCCC3)c3ccccc3n2C)cc1 (stereo unspecified),T/C,[2],100 % of control
same,T/C,[5],97 % of control
COc1cc(C(C)=O)ccc1OS(C)(=O)=O,T/C,"dose: 20.0 mg/kg/injection, schedule: Q01DX009 (ip), vehicle: Klucel (hydroxypropylcellulose) (HPC)",100 % of control
same,T/C,"dose: 20.0 mg/kg/injection, schedule: Q04DX003 (ip), vehicle: Klucel (hydroxypropylcellulose) (HPC)",106 % of control
same,T/C,"dose: 40.0 mg/kg/injection, schedule: Q01DX009 (ip), vehicle: Klucel (hydroxypropylcellulose) (HPC)",98 % of control
same,T/C,"dose: 40.0 mg/kg/injection, schedule: Q04DX003 (ip), vehicle: Klucel (hydroxypropylcellulose) (HPC)",93 % of control
same,T/C,"dose: 80.0 mg/kg/injection, schedule: Q01DX009 (ip), vehicle: Klucel (hydroxypropylcellulose) (HPC)",96 % of control
same,T/C,"dose: 80.0 mg/kg/injection, schedule: Q04DX003 (ip), vehicle: Klucel (hydroxypropylcellulose) (HPC)",98 % of control
N#Cc1cc(-c2ccccc2)c[nH]c1=O,T/C,"dose: 20.0 mg/kg/injection, schedule: Q01DX001 (ip), vehicle: Klucel (hydroxypropylcellulose) (HPC)",98 % of control
same,T/C,"dose: 40.0 mg/kg/injection, schedule: Q01DX001 (ip), vehicle: Klucel (hydroxypropylcellulose) (HPC)",101 % of control
same,T/C,"dose: 80.0 mg/kg/injection, schedule: Q01DX001 (ip), vehicle: Klucel (hydroxypropylcellulose) (HPC)",103 % of control
same,T/C,[10],102 % of control
COc1ccc2c(Nc3ccc(NS(C)(=O)=O)cc3)c3ccccc3nc2c1,T/C,"dose: 6.25 mg/kg/injection, schedule: Q01DX009 (ip), vehicle: saline with Tween-80",183 % of control
same,T/C,"dose: 12.5 mg/kg/injection, schedule: Q01DX009 (ip), vehicle: saline with Tween-80",181 % of control
same,T/C,"dose: 25.0 mg/kg/injection, schedule: Q01DX009 (ip), vehicle: saline with Tween-80",117 % of control
same,T/C,"dose: 25.0 mg/kg/injection, schedule: Q01DX009 (sc), vehicle: saline",164 % of control
same,T/C,"dose: 44.0 mg/kg/injection, schedule: Q04DX003 (ip), vehicle: saline with Tween-80",172 % of control
same,T/C,"dose: 50.0 mg/kg/injection, schedule: Q01DX009 (sc), vehicle: saline",95 % of control
same,T/C,"dose: 67.0 mg/kg/injection, schedule: Q04DX003 (ip), vehicle: saline with Tween-80",169 % of control
same,T/C,[3],276 % of control
O=C(O)c1c(Br)c(Br)c(Br)c(Br)c1-c1c2ccc(=O)c(O)c-2oc2c(O)c(O)ccc12,T/C,"dose: 12.5 mg/kg/injection, schedule: Q04DX003 (ip), vehicle: saline",108 % of control
same,T/C,[11],103 % of control
same,T/C,[12],105 % of control
same,T/C,[13],102 % of control
NC(=O)CSSCC(N)=O,T/C,[13],98 % of control
same,T/C,[14],93 % of control
Cc1cc(S(=O)(=O)F)ccc1O,T/C,"dose: 100.0 mg/kg/injection, schedule: Q01DX009 (ip), vehicle: Klucel (hydroxypropylcellulose) (HPC)",106 % of control
same,T/C,"dose: 200.0 mg/kg/injection, schedule: Q01DX009 (ip), vehicle: Klucel (hydroxypropylcellulose) (HPC)",103 % of control
same,T/C,"dose: 400.0 mg/kg/injection, schedule: Q01DX009 (ip), vehicle: Klucel (hydroxypropylcellulose) (HPC)",98 % of control
CC(C)(C)C1=CC(=O)C=C(C(C)(C)C)C1=O,T/C,[10],89 % of control
same,T/C,[15],92 % of control
same,T/C,[16],87 % of control
same,T/C,"dose: 400.0 mg/kg/injection, schedule: Q01DX001 (ip), vehicle: Klucel (hydroxypropylcellulose) (HPC)",100 % of control
same,T/C,[17],89 % of control
CCCCCCCCCCCCCCCC(=O)Nc1ccc(O)cc1,T/C,[7],110 % of control
same,T/C,[18],97 % of control
same,T/C,[8],110 % of control
same,T/C,[16],102 % of control
same,T/C,[9],108 % of control
same,T/C,[17],95 % of control
C1CC2CCCN2C1,T/C,"dose: 12.5 mg/kg/injection, schedule: Q01DX009 (ip), vehicle: saline",93 % of control
same,T/C,[19],93 % of control
same,T/C,[20],95 % of control
CCN=C(c1ccc(NC(=O)c2ccc(C(=O)Nc3ccc(C(=NCC)N(CC)C(C)=O)cc3)cc2)cc1)N(CC)C(C)=O,T/C,"dose: 125.0 mg/kg/injection, schedule: Q01DX015 (ip), vehicle: methylcellulose (MC)",95 % of control
same,T/C,"dose: 375.0 mg/kg/injection, schedule: Q01DX015 (ip), vehicle: methylcellulose (MC)",104 % of control
same,T/C,"dose: 500.0 mg/kg/injection, schedule: Q01DX015 (ip), vehicle: methylcellulose (MC)",103 % of control
O=C1O/C(=C/c2ccccc2)C2CCCCC12 (stereo unspecified),T/C,"dose: 100.0 mg/kg/injection, schedule: Q01DX009 (ip), vehicle: saline",90 % of control
same,T/C,[13],105 % of control
same,T/C,"dose: 200.0 mg/kg/injection, schedule: Q01DX009 (ip), vehicle: saline",93 % of control
same,T/C,[14],93 % of control
same,T/C,"dose: 400.0 mg/kg/injection, schedule: Q01DX009 (ip), vehicle: saline",95 % of control
same,T/C,"dose: 400.0 mg/kg/injection, schedule: Q04DX003 (ip), vehicle: saline",95 % of control
O=C(NC1CCCCC1)c1ccccc1,T/C,[18],100 % of control
same,T/C,[16],93 % of control
same,T/C,[17],96 % of control
CCCCCOC(=O)c1ccccc1C(=O)OCCCCC,T/C,"dose: 50.0 mg/kg/injection, schedule: Q01DX001 (ip), vehicle: Klucel (hydroxypropylcellulose) (HPC)",103 % of control
same,T/C,[10],110 % of control
same,T/C,[15],104 % of control
Cc1ccc(S(=O)(=O)CC(=O)c2ccccc2)cc1,T/C,[18],100 % of control
same,T/C,[16],107 % of control
same,T/C,[17],102 % of control
CCN(CC)CC(O)c1ccccc1 (stereo unspecified),T/C,[19],100 % of control
same,T/C,[11],98 % of control
same,T/C,[20],98 % of control
same,T/C,[12],93 % of control
same,T/C,[13],100 % of control
O=C1C2CCC(C2)C1C(O)(C(F)(F)Cl)C(F)(F)Cl (stereo unspecified),T/C,"dose: 50.0 mg/kg/injection, schedule: Q01DX009 (ip), vehicle: saline with Tween-80",92 % of control
same,T/C,[1],90 % of control
same,T/C,[4],90 % of control
same,T/C,[6],92 % of control
